The assay addresses aspartyl proteases, in particular, beta-secretase. Put plainly: Ki of the compounds listed in Tables 1 and 2 (no method described). It is filed as biochemical.
Setting [1] is: Table 1, compounds of formula Ia, W is -(CH2)n-.

pKi: −log10 of the molar value. Where two headings read alike, the source gives them in different places.

The pKi is the Ki on a negative log10 scale, so that one unit is a factor of ten. A low value points to a large Ki. As for `Cc1ccc(S(=O)(=O)N(CC(C)C)[C@@H](CCCCNC(=O)OCc2ccccc2)C(=O)OCc2ccccc2)cc1` [Compound No. 75, Nα-isobutyl-Nα-(4-methylbenzenesulfonyl)-Nε-benzyloxycarbonyl-L-lysine Benzyl Ester], the negative logarithm of the Ki (pKi) under setting [1] was under 5.90.

As for `CC(C)CN([C@@H](CCCCNC(=O)COc1ccccc1)C(=O)O)S(=O)(=O)c1ccc([N+](=O)[O-])cc1` [Compound No. 160, Nα-isobutyl-Nα-(4-nitrobenzenesulfonyl)-Nε-phenoxyacetyl-L-lysine], under setting [1], the pKi was 7.61.

Take `O=C(NCCCC[C@H](NS(=O)(=O)c1ccc(Br)cc1)C(=O)O)OCC1c2ccccc2-c2ccccc21` [Compound No. 66, Nα-(4-bromobenzenesulfonyl)-Nε-(9-fluorenylmethoxycarbonyl)-L-lysine]: the negative logarithm of the Ki (pKi) under setting [1] was 5.72.

For `Cc1ccc(S(=O)(=O)N(CC(C)C)C(CCCNC(=O)OCC2c3ccccc3-c3ccccc32)C(=O)O)cc1` (racemic) [Compound No. 6, Nα-isobutyl-Nα-(4-methylbenzenesulfonyl)-Nδ-(9-fluorenylmethoxycarbonyl)-DL-ornithine], the negative logarithm of the Ki (pKi) under setting [1] was 6.74.

The compound `O=C(N[C@H](CO)CCCCNS(=O)(=O)c1ccc(Br)cc1)OCC1c2ccccc2-c2ccccc21` [Compound No. 22, (2S)-(9-fluorenylmethoxycarbonylamino)-6-(4-bromobenzenesulfonylamino)-1-hexanol] gave a pKi under setting [1] of under 5.22.

In turn, `CC(C)CN(C(CCCCNC(=O)OCC1c2ccccc2-c2ccccc21)C(=O)O)S(=O)(=O)c1ccc(F)cc1` (racemic) [Compound No. 3, Nα-isobutyl-Nα-(4-fluorobenzenesulfonyl)-Nε-(9-fluorenylmethoxycarbonyl)-DL-lysine] had a pKi under setting [1] of 7.76.

For `O=C(N[C@@H](CCNS(=O)(=O)c1ccc(Br)cc1)C(=O)O)OCC1c2ccccc2-c2ccccc21` [Compound No. 14, (S)-2-(9-fluorenylmethoxycarbonylamino)-4-(4-bromobenzenesulfonylamino)-butanoic Acid], under setting [1], the negative logarithm of the Ki (pKi) is 4.31.

Under setting [1], `CC(C)CN(C(CCCCNC(=O)OCC1c2ccccc2-c2ccccc21)C(=O)O)S(=O)(=O)c1ccc(Cl)cc1` (racemic) [Compound No. 1, Nα-isobutyl-Nα-(4-chlorobenzenesulfonyl)-Nε-(9-fluorenylmethoxycarbonyl)-DL-lysine] gave a negative-log Ki (pKi) of 7.69. This pKi lies 3.38 log units higher than the previous one.

`Cc1ccc(S(=O)(=O)N(CC(C)C)[C@@H](CCCCNC(=O)c2c[nH]c3ccccc23)C(=O)O)cc1` [compound 87] showed a pKi under setting [1] of under 5.90.

As to `Cc1ccc(S(=O)(=O)N(CC(C)C)C(CNCCNC(=O)CCc2ccccc2)C(=O)O)cc1` [Compound No. 206, (2R,2S)-2-[N-isobutyl-N-(4-methylbenzenesulfonyl)]-3-[2′-(N′-dihydrocinnamoyl)ethylamino]-propionic Acid], the pKi is under 6.52.

Under setting [1], `Cc1ccc(S(=O)(=O)N(CC(C)C)[C@@H](CCCCNC(=O)CCc2ccc(O)cc2)C(=O)O)cc1` [Compound No. 126, Nα-isobutyl-Nα-(4-methylbenzenesulfonyl)-Nε-(4-hydroxydihydrocinnamoyl)-L-lysine] had a negative logarithm of the Ki (pKi) of under 6.52.

`COc1ccc(S(=O)(=O)N[C@@H](CCCCNC(=O)OCC2c3ccccc3-c3ccccc32)C(=O)O)cc1` [Compound No. 104, Nα-(4-methoxylbenzenesulfonyl)-Nε-(9-fluorenylmethoxycarbonyl)-L-lysine] gave a pKi under setting [1] of 5.50.

Compound `CC(C)CN([C@@H](CCCCNS(=O)(=O)c1ccc([N+](=O)[O-])cc1)C(=O)O)S(=O)(=O)c1ccc([N+](=O)[O-])cc1` [compound 116, Nα-isobutyl-Nα,Nε-di-(4-nitrobenzenesulfonyl)-L-lysine] showed a pKi under setting [1] of under 6.52.

The compound `Cc1ccc(S(=O)(=O)N(CC(C)C)[C@@H](CCCCNC(=O)c2cc3ccccc3[nH]2)C(=O)O)cc1` [compound 88] had a negative-log Ki (pKi) under setting [1] of under 6.20.

Under setting [1], `Cc1ccc(S(=O)(=O)N(CC(C)C)[C@@H](CCCCNC(=O)CCc2c[nH]c3ccccc23)C(=O)O)cc1` [compound 89] gave a pKi of 8.16.

Under setting [1], `O=C(NCCCC[C@H](NS(=O)(=O)c1ccc([N+](=O)[O-])cc1)C(=O)O)OCC1c2ccccc2-c2ccccc21` [Compound No. 103, Nα-(4-nitrobenzenesulfonyl)-Nε-(9-fluorenylmethoxycarbonyl)-L-lysine] gave a negative-log Ki (pKi) of 5.48.

For the compound `O=C(N[C@@H](CCCNS(=O)(=O)c1ccc([N+](=O)[O-])cc1)C(=O)O)OCC1c2ccccc2-c2ccccc21` [Compound No. 62, Nδ-(4-nitrobenzenesulfonyl)-Nα-(9-fluorenylmethoxycarbonyl)-L-ornithine], the pKi under setting [1] is 4.58.

With `COc1cccc(C=CC(=O)NCCCC[C@@H](C(=O)O)N(CC(C)C)S(=O)(=O)c2ccc([N+](=O)[O-])cc2)c1` [Compound No. 162, Nα-isobutyl-Nα-(4-nitrobenzenesulfonyl)-Nε-(3-methoxycinnamoyl)-L-lysine], the pKi under setting [1] is under 6.52.

`CC(C)CN([C@@H](CCCCNC(=O)CCc1ccccc1)C(=O)O)S(=O)(=O)c1ccc(N)cc1` [Compound No. 158, Nα-isobutyl-Nα-(4-aminobenzenesulfonyl)-Nε-dihydrocinnamoyl-L-lysine] gave a pKi under setting [1] of under 6.52.

`O=C(N[C@@H](CCCCNS(=O)(=O)c1ccc(Br)cc1)C(=O)O)OCC1c2ccccc2-c2ccccc21` [Compound No. 16, Nε-(4-bromobenzenesulfonyl)-Nα-(9-fluorenylmethoxycarbonyl)-L-lysine] showed a pKi under setting [1] of 4.89.

`Cc1ccc(S(=O)(=O)N(CC(C)C)[C@@H](CCCCNC(=O)CCc2ccccc2)C(=O)O)cc1` [compound 91] had a pKi under setting [1] of 8.10.

In turn, `Cc1ccc(S(=O)(=O)N(CC(C)C)C(CCCCN(CC(C)C)C(=O)CCc2ccccc2)C(=O)O)cc1` (racemic) [Compound No. 159, Nα,Nε-diisobutyl-Nα-(4-methylbenzenesulfonyl)-Nε-(3-phenylpropanoyl)-DL-lysine] had a pKi under setting [1] of under 6.52.

`Cc1ccc(S(=O)(=O)N(CC(C)C)C(CCCCNC(=S)CCc2ccccc2)C(=O)O)cc1` (racemic) [Compound No. 153, Nα-isobutyl-Nα-(4-methylbenzenesulfonyl)-Nε-dihydrothiocinnamoyi-DL-lysine] gave a pKi under setting [1] of 6.82.

As for `CC(C)CN([C@@H](CCCCNC(=O)CCc1cccc(N)c1)C(=O)O)S(=O)(=O)c1ccc(N)cc1` [Compound No. 118, Nα-isobutyl-Nα-(4-aminobenzenesulfonyl)-Nε-(3-aminodihydrocinnamoyl)-L-lysine], the negative-log Ki (pKi) under setting [1] is 7.69.

Compound `CC(C)CN([C@@H](CCCCNC(=O)CCc1ccc2c(c1)OCO2)C(=O)O)S(=O)(=O)c1ccc(N)cc1` [Compound No. 155, Nα-isobutyl-Nα-(4-aminobenzenesulfonyl)-Nε-(3,4-methylenedioxydihydrocinnamoyl)-L-lysine] showed a pKi under setting [1] of 7.80.

Consider `O=C(O)[C@H](CCCN(Cc1ccc(F)cc1)S(=O)(=O)c1ccc(Br)cc1)NS(=O)(=O)c1ccc(Br)cc1` [Compound No. 59, Nα,Nδ-di-(4-bromobenzenesulfonyl)-Nδ-(4-fluorobenzyl)-L-ornithine], for which the pKi under setting [1] is under 4.46.

In turn, `COC(=O)[C@H](CCCCNS(=O)(=O)c1ccc(Br)cc1)NC(=O)OCC1c2ccccc2-c2ccccc21` [Compound No. 15, Nα-(9-fluorenylmethoxycarbonyl)-Nε-(4-bromobenzenesulfonyl)-L-lysine Methyl Ester] gave a pKi under setting [1] of 4.33.

For the compound `CC(C)CN([C@@H](CCCCNC(=O)CCc1ccccc1)C(=O)O)S(=O)(=O)c1ccc([N+](=O)[O-])cc1` [Compound No. 94, Nα-isobutyl-Nα-(4-nitrobenzenesulfonyl)-Nε-dihydrocinnamoyl-L-lysine], the pKi under setting [1] is 7.47.

In turn, `O=C(CC1c2ccccc2-c2ccccc21)N[C@@H](CCCCNS(=O)(=O)c1ccc(Br)cc1)C(=O)O` [Compound No. 30, Nα-(9-fluorenemethylcarbonyl)-Nε-(4-bromobenzenesulfonyl)-L-lysine] gave a negative-log Ki (pKi) under setting [1] of 4.15.

In turn, `Cc1ccc(S(=O)(=O)N(CC(C)C)[C@@H](CCCCNC(=O)OCC2c3ccccc3-c3ccccc32)C(=O)O)cc1` [Compound No. 67, Nα-isobutyl-Nα-(4-methylbenzenesulfonyl)-Nε-(9-fluorenylmethoxycarbonyl)-L-lysine] showed a negative logarithm of the Ki (pKi) under setting [1] of 8.37.

With `COc1ccccc1CCC(=O)NCCCC[C@@H](C(=O)O)N(CC(C)C)S(=O)(=O)c1ccc(N)cc1` [Compound No. 157, Nα-isobutyl-Nα-(4-aminobenzenesulfonyl)-Nε-(2-methoxydihydrocinnamoyl)-L-lysine], the pKi under setting [1] is 7.72.

In turn, `O=C(O)[C@H](CCCNS(=O)(=O)c1ccc(Br)cc1)NS(=O)(=O)c1ccc(Br)cc1` [Compound No. 57, Nα,Nε-di-(4-bromobenzenesulfonyl)-L-ornithine] had a pKi under setting [1] of 4.37.

Take `COc1cccc(CCC(=O)NCCCC[C@@H](C(=O)O)N(CC(C)C)S(=O)(=O)c2ccc(N)cc2)c1OC` [Compound No. 119, Nα-isobutyl-Nα-(4-aminobenzenesulfonyl)-Nε-(2,3-dimethoxydihydrocinnamoyl)-L-lysine]: the pKi under setting [1] was 8.21.

The compound `O=C(N[C@@H](CCCCNS(=O)(=O)c1ccc(Br)cc1)C(=O)O)C(c1ccccc1)c1ccccc1` [Compound No. 36, Nα-(diphenylacetyl)-Nε-(4-bromobenzenesulfonyl)-L-lysine] gave a pKi under setting [1] of 4.62.

As to `O=C(N[C@@H](CCCCNS(=O)(=O)c1ccc2ccccc2c1)C(=O)O)OCC1c2ccccc2-c2ccccc21` [Compound No. 32, Nε-(2-naphthalenesulfonyl)-Nα-(9-fluorenylmethoxycarbonyl)-L-lysine], the pKi under setting [1] was 5.00.

Compound `CC(C)CN([C@@H](CCCCNC(=O)OCC1c2ccccc2-c2ccccc21)C(=O)O)S(=O)(=O)c1ccc(N)cc1` [Compound No. 44, Nα-(4-aminobenzenesulfonyl)-Nα-isobutyl-Nε-(9-fluorenylmethoxycarbonyl)-L-lysine] gave a pKi under setting [1] of 8.68.

With `CC(C)CN([C@@H](CCCCNC(=O)C=Cc1ccc2c(c1)OCO2)C(=O)O)S(=O)(=O)c1ccc([N+](=O)[O-])cc1` [Compound No. 163, Nα-isobutyl-Nα-(4-nitrobenzenesulfonyl)-Nε-(3,4-methylenedioxycinnamoyl)-L-lysine], the pKi under setting [1] is under 6.52.

Values taken from patent US20060079550A1, “Amino acid derivatives useful for the treatment of alzheimer's disease” (priority 2001, published 2006).
